According to PMC3945637 (Frontiers in Pharmacology, 2014):
Where “and” joins values, the source holds several entries; their conditions need not be identical. Identical values can stand only once. Like-named read-outs stand apart in the source and are kept apart here. Peptide text beside a SMILES is read from it.

Key:
[1] = biological target: rabbit B2R-green fluorescent protein (rabbit) (UniProt Q28642); experiment: radioligand binding; competition of 3 nM [^3H]BK binding to adherent intact HEK 293 cells stably expressing rabbit B2R-GFP by unlabeled peptides; 0 °C; peptidase inhibitors that included captopril; one-site competition fit
[2] = biological target: human B1R (B1R-FLAG vector) (human) (UniProt P46663); experiment: radioligand binding; competition of 1 nM [^3H]Lys-des-Arg^9-BK binding to HEK 293a cells transiently expressing human B1R (B1R-FLAG vector); one-site competition fit
[3] = biological target: T1, rabbit B2R-green fluorescent protein (B2R-GFP) (Oryctolagus cuniculus, UniProt Q28642); experiment: [3H]BK binding competition to B2R-GFP stably expressed in intact HEK 293 cells; conditions: for [3H]BK binding to B2R-GFP log(IC50) ± SE: log of IC50, 3 nM [3H]BK, 0 °C, with peptidase inhibitors incl. captopril, HEK 293 cells; for IC50 for B2R-GFP relative to unlabeled BK (fold greater IC50 / lower affinity): [3H]BK binding competition, vs BK
T1 construct: expressed in transfected cells
T1 sequence (Q28642 1-367): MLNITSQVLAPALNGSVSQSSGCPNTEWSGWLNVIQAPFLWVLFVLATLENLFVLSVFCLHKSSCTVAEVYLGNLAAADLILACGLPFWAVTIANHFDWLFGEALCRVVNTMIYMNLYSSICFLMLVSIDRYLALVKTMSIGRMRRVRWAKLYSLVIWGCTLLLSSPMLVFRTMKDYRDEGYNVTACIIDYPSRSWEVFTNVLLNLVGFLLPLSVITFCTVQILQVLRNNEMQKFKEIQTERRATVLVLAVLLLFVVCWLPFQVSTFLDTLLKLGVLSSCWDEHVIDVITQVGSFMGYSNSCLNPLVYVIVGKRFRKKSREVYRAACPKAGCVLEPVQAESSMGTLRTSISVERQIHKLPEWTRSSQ
Protocol: (§1) Affinity for the B2R was evaluated using a radioligand binding competition assay performed at 0 °C in the presence of peptidase inhibitors that included captopril ([Houle et al., 2000]). […] Other HEK 293a cells that transiently expressed human recombinant ACE were used to perform a [^3H]enalaprilat binding assay as described ([Koumbadinga et al., 2010]; the peACE vector was a gift from Prof. P. Corvol, Paris, France).
(§2) Results are presented as mean ± SEM. Radioligand binding data were fitted by non-linear regression to a one-site competition equation using a least-square method (Prism 4.0, GraphPad Software Inc., San Diego, CA, USA) and IC50 values calculated from this procedure. The same computer program was used to draw concentration-effect curves (least square fitting of sigmoidal dose-response equation with variable slope) and to derive contractile EC50 values. The qualitative effect of treatments on the distribution of the B2R-GFP fluorescent protein (either located at the plasma membrane or submitted to internalization) was evaluated for each HEK 293 cell in large microphotographic records and proportion of affected cells were compared using the χ^2 statistics to determine drug effect on the subcellular receptor distribution.

human B1R (B1R-FLAG) = biological target: T2, human B1R (B1R-FLAG) (Homo sapiens, UniProt P46663); experiment: [3H]Lys-des-Arg9-BK binding competition to B1R-FLAG transiently expressed in HEK 293a cells; conditions: for [3H]Lys-des-Arg9-BK binding to B1R-FLAG log(IC50) ± SE: log of IC50, 1 nM [3H]Lys-des-Arg9-BK, HEK 293a cells
T2 construct: FLAG; expressed in transfected cells
T2 sequence (P46663 1-353): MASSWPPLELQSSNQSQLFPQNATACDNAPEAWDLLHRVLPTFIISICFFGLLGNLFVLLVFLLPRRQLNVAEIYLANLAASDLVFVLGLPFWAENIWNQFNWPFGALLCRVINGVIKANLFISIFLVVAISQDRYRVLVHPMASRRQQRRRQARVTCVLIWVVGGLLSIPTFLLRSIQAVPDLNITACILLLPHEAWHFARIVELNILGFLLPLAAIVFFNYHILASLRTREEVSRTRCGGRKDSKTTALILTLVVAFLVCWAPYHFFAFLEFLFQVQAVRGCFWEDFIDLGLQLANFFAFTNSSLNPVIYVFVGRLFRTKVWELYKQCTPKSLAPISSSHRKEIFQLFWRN

[4] = biological target: T3, BK B2R (human umbilical vein rings) (Homo sapiens, UniProt P30411); experiment: Human isolated umbilical vein contractility assay; assay type: cell-based; conditions: for fold less potent than BK as contractile agent: control conditions, vs BK; for +Peptidase inhibitor log(EC50) ± SE / Control (DMSO vehicle) log(EC50) ± SE: log of contractile EC50; for Control (DMSO vehicle) log(EC50) ± SE: no peptidase inhibitor, paired tissues; for reduction of contractile potency by Plummer's inhibitor: Plummer's inhibitor vs control tissues; for decrease of apparent contractile potency by ACE blockade: enalaprilat 1 μM vs paired control tissues
T3 construct: from tissue; host or cells: human umbilical vein rings
T3 sequence (P30411 1-391): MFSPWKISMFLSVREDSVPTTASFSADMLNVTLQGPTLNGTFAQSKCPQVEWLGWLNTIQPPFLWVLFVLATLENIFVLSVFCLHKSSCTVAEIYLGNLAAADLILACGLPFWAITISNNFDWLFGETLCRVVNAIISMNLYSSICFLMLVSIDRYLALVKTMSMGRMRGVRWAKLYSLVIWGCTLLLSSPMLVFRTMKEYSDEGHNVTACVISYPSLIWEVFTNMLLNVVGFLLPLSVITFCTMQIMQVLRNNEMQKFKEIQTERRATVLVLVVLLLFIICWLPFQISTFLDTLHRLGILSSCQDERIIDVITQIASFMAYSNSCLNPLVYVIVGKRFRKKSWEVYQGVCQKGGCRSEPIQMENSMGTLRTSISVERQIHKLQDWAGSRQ
Excerpt: The institutional research ethics board (CHU de Québec) approved the anonymous use of human umbilical cord segments obtained after elective cesarean section deliveries. Informed consent was obtained from mothers. […] Tissues were used only once and discarded; controls curves were obtained from other vascular rings from the same vein.
as §2

human recombinant ACE = human recombinant ACE (Homo sapiens, UniProt P12821); experiment: [3H]enalaprilat binding competition to recombinant ACE transiently expressed in HEK 293a cells; design: expressed in transfected cells; host or cells: HEK 293a cells, transient expression (peACE vector, gift from Prof. P. Corvol); conditions: for fold lesser affinity vs. BK for ACE: [3H]enalaprilat binding competition; for [3H]enalaprilat binding to ACE log(IC50) ± SE: log of IC50, 2 nM [3H]enalaprilat, HEK 293a cells
Chain of human recombinant ACE (P12821 30-1306): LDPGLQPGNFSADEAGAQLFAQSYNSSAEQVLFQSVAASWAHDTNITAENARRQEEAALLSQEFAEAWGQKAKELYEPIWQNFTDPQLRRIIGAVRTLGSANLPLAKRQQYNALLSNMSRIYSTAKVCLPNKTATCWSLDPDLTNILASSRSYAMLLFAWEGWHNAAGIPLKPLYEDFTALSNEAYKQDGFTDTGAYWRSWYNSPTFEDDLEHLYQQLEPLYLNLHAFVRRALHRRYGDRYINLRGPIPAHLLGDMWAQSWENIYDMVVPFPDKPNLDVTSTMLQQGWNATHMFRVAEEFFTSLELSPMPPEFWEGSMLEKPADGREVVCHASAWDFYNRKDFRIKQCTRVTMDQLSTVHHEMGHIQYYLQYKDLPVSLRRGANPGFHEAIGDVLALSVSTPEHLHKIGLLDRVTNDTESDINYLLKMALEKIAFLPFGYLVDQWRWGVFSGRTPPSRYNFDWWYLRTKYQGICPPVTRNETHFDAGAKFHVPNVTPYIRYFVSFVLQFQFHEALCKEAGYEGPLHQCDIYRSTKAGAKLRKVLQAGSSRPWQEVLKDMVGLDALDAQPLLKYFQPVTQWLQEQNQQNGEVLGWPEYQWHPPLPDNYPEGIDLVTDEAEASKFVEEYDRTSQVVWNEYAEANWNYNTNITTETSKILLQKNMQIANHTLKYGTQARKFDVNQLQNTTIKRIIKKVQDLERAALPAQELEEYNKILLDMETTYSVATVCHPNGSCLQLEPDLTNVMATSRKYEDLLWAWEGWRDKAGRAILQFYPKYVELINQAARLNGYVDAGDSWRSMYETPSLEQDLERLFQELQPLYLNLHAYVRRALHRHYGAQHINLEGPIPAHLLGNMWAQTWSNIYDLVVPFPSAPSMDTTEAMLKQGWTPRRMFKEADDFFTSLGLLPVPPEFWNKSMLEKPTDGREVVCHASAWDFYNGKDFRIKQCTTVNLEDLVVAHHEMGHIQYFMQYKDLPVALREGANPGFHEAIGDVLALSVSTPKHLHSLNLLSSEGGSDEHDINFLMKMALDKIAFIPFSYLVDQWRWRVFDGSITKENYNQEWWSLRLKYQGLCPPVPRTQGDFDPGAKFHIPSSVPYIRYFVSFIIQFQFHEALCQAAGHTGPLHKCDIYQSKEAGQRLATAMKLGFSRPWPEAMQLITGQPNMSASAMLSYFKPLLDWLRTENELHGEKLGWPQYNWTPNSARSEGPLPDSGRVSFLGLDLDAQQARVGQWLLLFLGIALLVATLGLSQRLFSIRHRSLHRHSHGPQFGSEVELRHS
Protocol: as §1, §2

[5] = biological target: endogenous B2 receptor of the human umbilical vein (human (endogenous in umbilical vein)) (UniProt P30411)
[6] = enalaprilat 1 μM, 30 min before agonist

Molecule | [3H]BK binding to B2R-GFP log(IC50) ± SE [3] | [3H]Lys-des-Arg9-BK binding to B1R-FLAG log(IC50) ± SE (human B1R (B1R-FLAG)) | fold less potent than BK as contractile agent [4] [fold] | +Peptidase inhibitor log(EC50) ± SE [4, 6] | Control (DMSO vehicle) log(EC50) ± SE [4] | fold lesser affinity vs. BK for ACE (human recombinant ACE) [fold] | [3H]enalaprilat binding to ACE log(IC50) ± SE (human recombinant ACE) | IC50 for B2R-GFP relative to unlabeled BK (fold greater IC50 / lower affinity) [3] [fold] | decrease of apparent contractile potency by ACE blockade [4] | other results
BK-Arg (peptide) | – | – | – | – | – | – | – | – | – | log(IC50) [1]: -6.34 log M; log(IC50) [2]: -5.12 log M
C[C@H](NC(=O)[C@H](CCCNC(=N)N)NC(=O)[C@H](Cc1ccccc1)NC(=O)[C@@H]1CCCN1C(=O)[C@H](CO)NC(=O)[C@H](Cc1ccccc1)NC(=O)CNC(=O)[C@@H]1CCCN1C(=O)[C@@H]1CCCN1C(=O)[C@@H](N)CCCNC(=N)N)C(=O)N1CCC[C@H]1C(=O)O [BK-Ala-Pro] (H-RPPGFSPFRAP-OH; N-terminus and C-terminus assumed) | -5.11 ± 0.16 | >-5 | 14.1 | -5.55 ± 0.06 | -6.59 ± 0.07 | 2.23 | -5.46 ± 0.11 | – | – | –
NC(N)=NCCC[C@H](NC(=O)[C@H](Cc1ccccc1)NC(=O)[C@@H]1CCCN1C(=O)[C@H](CO)NC(=O)[C@H](Cc1ccccc1)NC(=O)CNC(=O)[C@@H]1CCCN1C(=O)[C@@H]1CCCN1C(=O)[C@@H](N)CCCN=C(N)N)C(=O)O [BK, Bradykinin, reference compound] (H-RPPGFSPFR-OH) | – | – | – | – | – | – | – | – | – | IC50 [3]: 15.8 nM; IC50 (human B1R (B1R-FLAG)): > 10 µM; IC50 (human recombinant ACE): 1550 nM
N=C(N)NCCC[C@H](NC(=O)[C@H](Cc1ccccc1)NC(=O)[C@@H]1CCCN1C(=O)[C@H](CO)NC(=O)[C@H](Cc1ccccc1)NC(=O)CNC(=O)[C@@H]1CCCN1C(=O)[C@@H]1CCCN1C(=O)[C@H](CCCNC(=N)N)NC(=O)[C@@H]1CCCN1C(=O)[C@@H](N)CCCNC(=N)N)C(=O)O [Arg-Pro-BK] (H-RPRPPGFSPFR-OH; N-terminus and C-terminus assumed) | -7.61 ± 0.09 | – | – | – | -7.39 ± 0.06 | – | – | 1.6 | – | effect of DPP-IV inhibitor NVP-DPP728 on apparent contractile potency (in words) ([4]; NVP-DPP728 1 μM): did not show a loss of apparent potency; effect of aminopeptidase inhibitor amastatin on contractile effect (in words) ([4]; amastatin 3 μM): failed to modify; +Peptidase inhibitor log(EC50) ± SE ([4]; NVP-DPP728 1 μM): -7.29 ± 0.03; +Peptidase inhibitor log(EC50) ± SE ([4]; amastatin 3 μM): -7.35 ± 0.07
Arg-Pro-BK (peptide) | – | – | – | – | – | – | – | – | – | log(IC50) [1]: -7.61 log M; log(EC50) of contraction of the human isolated umbilical vein, control (DMSO vehicle), Figure 5B [5]: -7.39 log M; log(EC50) of contraction of the human isolated umbilical vein, with NVP-DPP728 1 μM, Figure 5B [5]: -7.29 log M; log(EC50) of contraction of the human isolated umbilical vein, with amastatin 3 μM, Figure 5B [5]: -7.35 log M
N=C(N)NCCC[C@H](NC(=O)[C@H](Cc1ccccc1)NC(=O)[C@@H]1CCCN1C(=O)[C@H](CO)NC(=O)[C@H](Cc1ccccc1)NC(=O)CNC(=O)[C@@H]1CCCN1C(=O)[C@@H]1CCCN1C(=O)[C@@H](N)CCCNC(=N)N)C(=O)O [BK, Bradykinin, reference compound] (H-RPPGFSPFR-OH) | – | – | – | – | – | – | – | – | not changed | reduction of contractile potency by Plummer's inhibitor [4]: did not affect
N=C(N)NCCC[C@H](NC(=O)[C@H](CCCNC(=N)N)NC(=O)[C@H](Cc1ccccc1)NC(=O)[C@@H]1CCCN1C(=O)[C@H](CO)NC(=O)[C@H](Cc1ccccc1)NC(=O)CNC(=O)[C@@H]1CCCN1C(=O)[C@@H]1CCCN1C(=O)[C@@H](N)CCCNC(=N)N)C(=O)O [BK-Arg] (H-RPPGFSPFRR-OH; N-terminus and C-terminus assumed) | -6.34 ± 0.11 | -5.12 ± 0.10 | – | – | -6.67 ± 0.08 | – | – | 29 | – | IC50 (human B1R (B1R-FLAG); competition of [3H]Lys-des-Arg9-BK binding, read-out: IC50 for recombinant human B1R): 7.6 µM; reduction of contractile potency by Plummer's inhibitor [4]: 15 fold; +Peptidase inhibitor log(EC50) ± SE ([4]; Plummer's inhibitor 1 μM): -5.49 ± 0.07
N=C(N)NCCC[C@H](NC(=O)[C@H](Cc1ccccc1)NC(=O)[C@@H]1CCCN1C(=O)[C@H](CO)NC(=O)[C@H](Cc1ccccc1)NC(=O)CNC(=O)[C@@H]1CCCN1C(=O)[C@@H]1CCCN1C(=O)[C@@H](N)CCCNC(=N)N)C(=O)N[C@@H](CO)C(=O)N[C@@H](Cc1ccc(O)cc1)C(=O)O [BK-Ser-Tyr] (H-RPPGFSPFRSY-OH; N-terminus and C-terminus assumed) | -5.79 ± 0.13 | >-5 | 6.9 | -6.32 ± 0.06 | -6.90 ± 0.09 | 3.94 | -5.21 ± 0.15 | 102 | 3.9 fold | –
CC(C)C[C@H](NC(=O)[C@H](Cc1c[nH]cn1)NC(=O)[C@H](CCCNC(=N)N)NC(=O)[C@H](Cc1ccccc1)NC(=O)[C@@H]1CCCN1C(=O)[C@H](CO)NC(=O)[C@H](Cc1ccccc1)NC(=O)CNC(=O)[C@@H]1CCCN1C(=O)[C@@H]1CCCN1C(=O)[C@@H](N)CCCNC(=N)N)C(=O)O [BK-His-Leu] (H-RPPGFSPFRHL-OH; N-terminus and C-terminus assumed) | -5.24 ± 0.20 | >-5 | 13.5 | -5.34 ± 0.06 | -6.61 ± 0.11 | 3.33 | -5.28 ± 0.22 | 363 | 18 fold and 18.3 fold | –
